Results as given in paper PMC7933358, “Enzymatic spiroketal formation via oxidative rearrangement of pentangular polyketides” (Nature Communications, 2021).

Tests used:
[1] = target: T1, GrhO6 (Streptomyces sp. JP95, UniProt Q8KSX5); experiment: identification of flavin bound to purified enzyme by HPLC; type: binding; details: co-purified cofactor, tight, non-covalent
T1 construct: full-length gene in pETDuet-1 (EcoRI/PstI), polyhistidine tag kept; E. coli BL21 (DE3)
T1 sequence (Q8KSX5 1-520): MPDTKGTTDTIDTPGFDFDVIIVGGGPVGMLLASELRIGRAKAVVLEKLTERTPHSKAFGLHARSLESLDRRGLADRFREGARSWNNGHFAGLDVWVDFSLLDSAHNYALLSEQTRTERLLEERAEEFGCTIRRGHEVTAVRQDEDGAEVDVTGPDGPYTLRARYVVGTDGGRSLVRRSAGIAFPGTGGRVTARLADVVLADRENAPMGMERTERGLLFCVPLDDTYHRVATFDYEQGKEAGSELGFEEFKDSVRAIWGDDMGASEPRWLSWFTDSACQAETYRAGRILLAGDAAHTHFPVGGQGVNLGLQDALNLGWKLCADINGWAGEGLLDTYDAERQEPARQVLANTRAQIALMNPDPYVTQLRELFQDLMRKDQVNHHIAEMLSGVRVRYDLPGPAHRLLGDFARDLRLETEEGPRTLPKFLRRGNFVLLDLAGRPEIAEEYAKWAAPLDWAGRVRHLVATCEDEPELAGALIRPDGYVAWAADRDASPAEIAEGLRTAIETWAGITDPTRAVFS

[2] = target: T2, GrhO5 (Streptomyces sp. JP95, UniProt Q8KSX7); experiment: as above; type: binding; details: co-purified cofactor
T2 construct: full-length gene in pMAL-c5x-His (NdeI/PstI), N-terminal MBP tag kept; E. coli BL21 (DE3); amplified from cosmid pMP31
T2 sequence (Q8KSX7 1-537): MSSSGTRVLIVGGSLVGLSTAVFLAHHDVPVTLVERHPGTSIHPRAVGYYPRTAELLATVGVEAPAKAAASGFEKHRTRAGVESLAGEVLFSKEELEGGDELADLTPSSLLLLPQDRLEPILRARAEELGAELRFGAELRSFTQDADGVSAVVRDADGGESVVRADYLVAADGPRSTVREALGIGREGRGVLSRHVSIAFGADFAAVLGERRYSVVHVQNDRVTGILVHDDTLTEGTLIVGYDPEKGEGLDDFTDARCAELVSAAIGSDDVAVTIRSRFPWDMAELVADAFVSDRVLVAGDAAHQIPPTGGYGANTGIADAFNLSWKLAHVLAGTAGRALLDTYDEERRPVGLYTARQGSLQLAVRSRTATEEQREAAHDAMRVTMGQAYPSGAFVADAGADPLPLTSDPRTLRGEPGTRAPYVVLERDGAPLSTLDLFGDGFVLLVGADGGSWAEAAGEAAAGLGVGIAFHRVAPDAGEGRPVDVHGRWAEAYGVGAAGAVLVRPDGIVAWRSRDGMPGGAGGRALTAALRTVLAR

Cc1cc2nc3c(=O)[nH]c(=O)nc-3n(C[C@H](O)[C@H](O)[C@H](O)COP(=O)(O)OP(=O)(O)OC[C@H]3O[C@@H](n4cnc5c(N)ncnc54)[C@H](O)[C@@H]3O)c2cc1C [FAD] was tested. Which “identification of flavin bound to purified enzyme by HPLC” value [1] did it give?
The value was “contained a tightly, but non-covalently bound FAD cofactor similar to GrhO5”.

And the “identification of flavin bound to purified enzyme by HPLC” value [2]?
Its value is “bound flavin cofactor that was further determined as flavin adenine dinucleotide”.
